# Reference: patent US20180235993A1 (priority 2000, published 2018)
# Where two headings read alike, the source gives them in different places.
# How the values were obtained:
# in vitro [1] = experiment: in vitro
# BVDV (strain NADL) = experiment: Cell Protection Assay (CPA); type: cell-based, Bovine Viral Diarrhea virus; details: Bovine viral diarrhea virus isolates and strains
# Protocol: The assay was performed essentially as described by Baginski, S. G.; Pevear, D. C.; Seipel, M.; Sun, S. C. C.; Benetatos, C. A.; Chunduru, S. K.; Rice, C. M. and M. S. Collett “Mechanism of action of a pestivirus antiviral compound” PNAS USA 2000, 97(14), 7981-7986. MDBK cells (ATCC) were seeded onto 96-well culture plates (4,000 cells per well) 24 hours before use. After infection with BVDV (strain NADL, ATCC) at a multiplicity of infection (MOI) of 0.02 plaque forming units (PFU) per cell, serial dilutions of test compounds were added to both infected and uninfected cells in a final concentration of 0.5% DMSO in growth medium. Each dilution was tested in quadruplicate. Cell densities and virus inocula were adjusted to ensure continuous cell growth throughout the experiment and to achieve more than 90% virus-induced cell destruction in the untreated controls after four days post-infection. After four days, plates were fixed with 50% TCA and stained with sulforhodamine B. The optical density of the wells was read in a microplate reader at 550 nm. The 50% effective concentration (EC50) values were defined as the compound concentration that achieved 50% reduction of cytopathic effect of the virus. FIGS. 4 and 5 provide a graphical illustration of the methodology used to arrive at the 50% effective concentration (EC50) values for β-D-2′-CH3-riboG and ribavirin. FIG. 6 compares the results of the CPA for β-D-2′-CH3-riboG, β-D-2′-CH3-riboC, riboU, β-D-2′-CH3-riboA and ribavirin
# [2] = Bioavailability assay in Cynomolgus monkeys; type: in vivo, Cynomolgus monkey; details: for Mean Norm AUC: mean of 3 monkeys
# Protocol: Within 1 week prior to the study initiation, the cynomolgus monkey was surgically implanted with a chronic venous catheter and subcutaneous venous access port (VAP) to facilitate blood collection and underwent a physical examination including hematology and serum chemistry evaluations and the body weight was recorded. Each monkey (six total), received approximately 250 uCi of ^3H activity with each dose of active compound, namely β-D-2′-CH3-riboG at a dose level of 10 mg/kg at a dose concentration of 5 mg/mL, either via an intravenous bolus (3 monkeys, IV), or via oral gavage (3 monkeys, PO). Each dosing syringe was weighed before dosing to gravimetrically determine the quantity of formulation administered. Urine samples were collected via pan catch at the designated intervals (approximately 18-0 hours pre-dose, 0-4, 4-8 and 8-12 hours post-dosage) and processed. Blood samples were collected as well (pre-dose, 0.25, 0.5, 1, 2, 3, 6, 8, 12 and 24 hours post-dosage) via the chronic venous catheter and VAP or from a peripheral vessel if the chronic venous catheter procedure should not be possible. The blood and urine samples were analyzed for the maximum concentration (Cmax), time when the maximum concentration was achieved (Tmax), area under the curve (AUC), half life of the dosage concentration (T1/2), clearance (CL), steady state volume and distribution (Vss) and bioavailability (F), which are tabulated in Tables 2 and 3, and graphically illustrated in FIGS. 2 and 3, respectively.
# in vitro [3] = details: cattle
# BVDV = experiment: Plaque Reduction Assay; type: cell-based, Bovine Viral Diarrhea virus; details: Bovine viral diarrhea virus isolates and strains
# Protocol: For each compound the effective concentration was determined in duplicate 24-well plates by plaque reduction assays. Cell monolayers were infected with 100 PFU/well of virus. Then, serial dilutions of test compounds in MEM supplemented with 2% inactivated serum and 0.75% of methyl cellulose were added to the monolayers. Cultures were further incubated at 37° C. for 3 days, then fixed with 50% ethanol and 0.8% Crystal Violet, washed and air-dried. FIG. 7 is a graphical illustration of the results from the Plaque Reduction Assay. FIG. 8 is an image of BVDV plaque formation in the presence of increasing concentrations of β-D-2′-CH3-riboU.
# BVDV (NADL strain) = experiment: Yield Reduction Assay; type: cell-based, Bovine Viral Diarrhea virus
# Protocol: The assay was performed as described by Baginski, S. G.; Pevear, D. C.; Seipel, M.; Sun, S. C. C.; Benetatos, C. A.; Chunduru, S. K.; Rice, C. M. and M. S. Collett “Mechanism of action of a pestivirus antiviral compound” PNAS USA 2000, 97(14), 7981-7986, with minor modifications. Briefly, MDBK cells were seeded onto 24-well plates (2×10^5 cells per well) 24 hours before infection with BVDV (NADL strain) at a multiplicity of infection (MOI) of 0.1 PFU per cell. Serial dilutions of test compounds were added to cells in a final concentration of 0.5% DMSO in growth medium. Each dilution was tested in triplicate. After three days, cell cultures (cell monolayers and supernatants) were lysed by three freeze-thaw cycles, and virus yield was quantified by plaque assay. Briefly, MDBK cells were seeded onto 6-well plates (5×10^5 cells per well) 24 h before use. Cells were inoculated with 0.2 mL of test lysates for 1 hour, washed and overlaid with 0.5% agarose in growth medium. After 3 days, cell monolayers were fixed with 3.5% formaldehyde and stained with 1% crystal violet (w/v in 50% ethanol) to visualize plaques. FIG. 9 is a graphical illustration of the results from the Yield Reduction Assay. FIG. 8 is an image of BVDV yield reduction in the presence of increasing concentrations of β-D-2′-CH3-riboC.
# [4] = cynomolgus monkey, blood, Cynomolgus monkeys, IV 10 mg/kg
# [5] = cynomolgus monkey, blood, Cynomolgus monkeys, PO 10 mg/kg
smiles,measurement,setting,value
CC1(O)[C@@H](O)[C@@H](CO)O[C@H]1n1cnc2c(=O)[nH]c(N)nc21 (stereo partly drawn) [β-D-2′-CH3-riboG],CC50,in vitro [1]; cattle (Bos taurus),> 100 µM
same,CC50 at 4 days,in vitro [1]; hamster,20 µM
same,EC50,"BVDV (strain NADL); 96 h, MDBK cells infected with BVDV, 50% reduction of cytopathic effect, four days, read-out: EC50",4 µM
same,EC50,"BVDV (strain NADL); Table 13, BVDV, read-out: Cell Protection (EC50)",4 µM
same,Norm AUC,[2]; IV Monkey 1,293.2 ng·h/mL/mg
same,Norm AUC,[2]; IV Monkey 2,268.3 ng·h/mL/mg
same,Norm AUC,[2]; IV Monkey 3,293.4 ng·h/mL/mg
same,Mean Norm AUC,[2]; IV,284.9 ng·h/mL/mg
same,Norm AUC,[2]; PO Monkey 1,26.1 ng·h/mL/mg
same,Norm AUC,[2]; PO Monkey 2,29.0 ng·h/mL/mg
same,Norm AUC,[2]; PO Monkey 3,61.3 ng·h/mL/mg
same,Mean Norm AUC,[2]; PO,38.8 ng·h/mL/mg
same,F,"[2]; Table 3, Cynomolgus monkeys, 10 mg/kg",13.8%
same,bioavailability,"[2]; cynomolgus monkey, blood, 10 mg/kg, Table 2, monkeys, PO vs IV, read-out: F (oral bioavailability)",13.6%
same,AUC,"[2]; cynomolgus monkey, blood, iv, 10 mg/kg, Cynomolgus monkeys, IV 10 mg/kg",8760 ± 4210 ng·h/mL
same,AUC,"[2]; cynomolgus monkey, blood, iv, 10 mg/kg, IV Monkey 1, dose 46.44 mg (10 mg/kg)",13600 ng·h/mL
same,AUC,"[2]; cynomolgus monkey, blood, iv, 10 mg/kg, IV Monkey 2, dose 24.53 mg (10 mg/kg)",6580 ng·h/mL
same,AUC,"[2]; cynomolgus monkey, blood, iv, 10 mg/kg, IV Monkey 3, dose 20.72 mg (10 mg/kg)",6080 ng·h/mL
same,AUC,"[2]; cynomolgus monkey, blood, po, 10 mg/kg, Cynomolgus monkeys, PO 10 mg/kg",1170 ± 590 ng·h/mL
same,AUC,"[2]; cynomolgus monkey, blood, po, 10 mg/kg, PO Monkey 1, dose 29.04 mg (10 mg/kg)",758 ng·h/mL
same,AUC,"[2]; cynomolgus monkey, blood, po, 10 mg/kg, PO Monkey 2, dose 30.93 mg (10 mg/kg)",898 ng·h/mL
same,AUC,"[2]; cynomolgus monkey, blood, po, 10 mg/kg, PO Monkey 3, dose 30.04 mg (10 mg/kg)",1840 ng·h/mL
same,Cmax,[2]; [4],6950 ± 1890 ng/mL
same,Tmax,[2]; [4],0.25 h
same,clearance,[2]; [4],21.3 mL/min/kg
same,half-life,[2]; [4],7.9 ± 5.4 h
same,Vd,"[2]; cynomolgus monkey, blood, Cynomolgus monkeys, IV 10 mg/kg, read-out: Vss",2.09 ± 0.54 L/kg
same,Cmax,[2]; [5],218 ± 132 ng/mL
same,Tmax,[2]; [5],2 ± 1 h
same,half-life,[2]; [5],10.3 ± 4.1 h
same,CC50,in vitro [3],100 µM
same,EC90,"BVDV; 72 h, concentration to obtain 90% virus suppression, 3 days, read-out: EC90",< 9 µM
same,EC90,"BVDV; Table 13, BVDV, 90% virus suppression, read-out: Plaque Reduction (EC90)",< 9 µM
same,Conc. for 6-log Reduction,BVDV (NADL strain),20 μM
same,Yield Reduction 6 log10 reduction (μM),BVDV (NADL strain),20 μM
same,reduction in yield reduction assay,BVDV (NADL strain),4 log
same,EC90,"BVDV (NADL strain); Bovine viral diarrhea virus isolates and strains, Table 13, BVDV",3 µM
